pEC50: −log10 of the molar value. Positions of bridges follow the written chain, without caps; N, C: chain ends. Non-standard residues stand in square brackets, D forms with d. Residues, ends and D or L forms follow the SMILES beside them. Phe(4-NH2) = Nc1ccc(C[C@H](N)C(=O)O)cc1; αMeL = CC(C)C[C@](C)(N)C(=O)O; β3hP = O=C(O)C[C@@H]1CCCN1; Pip = O=C(O)[C@@H]1CCCCN1; Aze = O=C(O)[C@@H]1CCN1; Aib = CC(C)(N)C(=O)O; Sar = CNCC(=O)O
Columns and labels:
Type in all cases: cell-based
[1] = biological target: T1, human Oxytocin (OTR) receptor (Homo sapiens, UniProt P30559); assay: Calcium flux assay (FLIPR), agonist mode, CHO cells expressing human OTR; conditions: for pEC50: CHO cells stably expressing human OTR, calcium flux, read-out: hOT EC50; for hOT efficacy (%) / Emax: maximum response normalized to endogenous full agonist = 100%; for Emax: CHO, read-out: hOT efficacy (%)
T1 construct: expressed in transfected cells
T1 sequence (P30559 1-389): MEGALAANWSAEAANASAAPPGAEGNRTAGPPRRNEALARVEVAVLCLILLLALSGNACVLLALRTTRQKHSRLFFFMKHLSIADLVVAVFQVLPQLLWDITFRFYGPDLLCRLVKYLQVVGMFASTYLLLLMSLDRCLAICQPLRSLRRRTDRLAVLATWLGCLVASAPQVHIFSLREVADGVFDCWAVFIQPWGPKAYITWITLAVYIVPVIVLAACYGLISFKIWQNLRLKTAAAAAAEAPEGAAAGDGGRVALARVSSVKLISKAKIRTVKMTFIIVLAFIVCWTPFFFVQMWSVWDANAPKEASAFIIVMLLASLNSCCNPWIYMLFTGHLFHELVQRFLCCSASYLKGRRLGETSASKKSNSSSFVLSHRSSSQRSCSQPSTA
Text: (§1) Chines Hamster Ovary (CHO) cells were transfected with expression plasmids encoding either the human V1a, the human Oxytocin (OTR) or the humanV2 receptor, the later in combination with the chimeric Gqs5 G protein to redirect the signal to Calcium flux. Stable cells were cloned by limiting dilution to yield monoclonal cell lines expressing either human V1a, human V2+Gqs5 or human OTR receptors and selected based on functional responses detected on a fluorometric imaging plate reader (FLIPR) detecting Calcium flux in the cell after receptor activation.
On the afternoon before the assay, cells were plated at a density of 50,000 cells/well into black 96 well plates with clear bottoms to allow cell inspection and fluorescence measurements from the bottom of each well. The density of cells was sufficient to yield a confluent monolayer the next day. Hanks balanced salt solution, without phenol red, containing 20 mM HEPES (pH 7.3) and 2.5 mM probenecid (assay buffer) was prepared fresh for each experiment. Compound dilutions were made using a Beckman Biomek 2000 laboratory automation workstation, in assay buffer containing 1% DMSO. The dye-loading buffer consisted of a final concentration of 2 μM Fluo-4-AM (dissolved in DMSO and pluronic acid) in assay buffer. […] Once dye-loaded, the cells were washed thoroughly on an Embla cell washer with the assay buffer to remove any unincorporated dye. Exactly 100 μl assay buffer was left in each well.
Each 96 well plate containing dye-loaded cells was placed into the FLIPR machine and the laser intensity set to a suitable level to detect low basal fluorescence. To test compounds as agonists, 25 μl diluted compound was added to the plate 10 seconds into the fluorescent measurements and fluorescent response was recorded for 5 minutes. The fluorescence data was normalized to the endogenous full agonist dose-response set at 100% for the maximum response and 0% for the minimum. […] The concentration of agonist that produced a half-maximal response is represented by the EC50 value, the logarithm of which yielded the pEC50 value.

[2] = biological target: T2, human V1a receptor (Homo sapiens, UniProt P37288); assay: Calcium flux assay (FLIPR), agonist mode, CHO cells expressing human V1a; conditions: for pEC50: CHO cells stably expressing human V1a, calcium flux, read-out: hV1a EC50; for hV1a efficacy (%): maximum response normalized to endogenous full agonist = 100%
T2 construct: expressed in transfected cells
T2 sequence (P37288 whole entry): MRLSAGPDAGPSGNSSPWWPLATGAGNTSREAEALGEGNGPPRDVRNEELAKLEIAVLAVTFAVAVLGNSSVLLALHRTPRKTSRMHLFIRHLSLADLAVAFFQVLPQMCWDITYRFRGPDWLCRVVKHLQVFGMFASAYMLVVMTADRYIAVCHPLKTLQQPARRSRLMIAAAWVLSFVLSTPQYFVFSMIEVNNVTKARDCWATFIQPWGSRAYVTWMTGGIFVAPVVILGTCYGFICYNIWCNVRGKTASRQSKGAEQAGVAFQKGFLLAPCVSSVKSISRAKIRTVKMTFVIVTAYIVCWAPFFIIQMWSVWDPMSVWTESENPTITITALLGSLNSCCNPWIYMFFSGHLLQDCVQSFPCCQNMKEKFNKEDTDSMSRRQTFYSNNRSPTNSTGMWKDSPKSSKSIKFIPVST
Text: as §1, with “activation. The stable cell lines were grown in F-12 K Nutrient Mixture (Kaighns Modification), containing 10% foetal bovine serum (FBS), 1% penicillin-streptomycin, 1% L-glutamate, 200 ug/ml Geneticin at 37° C. in a 10% CO2 incubator at 95% humidity.” for “activation.”
(§2) On the afternoon before the assay, cells were plated at a density of 50,000 cells/well into black 96 well plates with clear bottoms to allow cell inspection and fluorescence measurements from the bottom of each well. The density of cells was sufficient to yield a confluent monolayer the next day. Hanks balanced salt solution, without phenol red, containing 20 mM HEPES (pH 7.3) and 2.5 mM probenecid (assay buffer) was prepared fresh for each experiment. Compound dilutions were made using a Beckman Biomek 2000 laboratory automation workstation, in assay buffer containing 1% DMSO. The dye-loading buffer consisted of a final concentration of 2 μM Fluo-4-AM (dissolved in DMSO and pluronic acid) in assay buffer. The existing culture media was removed from the wells and 100 μl of the dye-loading buffer was added to each well and incubated for approximately 60 min at 37° C. in a 5% CO2 incubator at 95% humidity. Once dye-loaded, the cells were washed thoroughly on an Embla cell washer with the assay buffer to remove any unincorporated dye. Exactly 100 μl assay buffer was left in each well.
(§3) Each 96 well plate containing dye-loaded cells was placed into the FLIPR machine and the laser intensity set to a suitable level to detect low basal fluorescence. To test compounds as agonists, 25 μl diluted compound was added to the plate 10 seconds into the fluorescent measurements and fluorescent response was recorded for 5 minutes. The fluorescence data was normalized to the endogenous full agonist dose-response set at 100% for the maximum response and 0% for the minimum. Each agonist concentration-response curve was constructed using a four parameter logistic equation with Microsoft Excel XLFit as follows: Y=Minimum+((Maximum−Minimum)/(1+10^(Log EC50-X)nH)), where y is the % normalized fluorescence, minimum is the minimum y, maximum is the maximum y, log EC50 is the log10 concentration which produces 50% of the maximum induced fluorescence, x is the log10 of the concentration of the agonist compound and H is the slope of the curve (the Hill Coefficient). The maximum value gives the efficacy of the agonist test compound in percentage. The concentration of agonist that produced a half-maximal response is represented by the EC50 value, the logarithm of which yielded the pEC50 value.

[3] = biological target: T3, human V2 receptor (Homo sapiens, UniProt P30518); assay: Calcium flux assay (FLIPR), agonist mode, CHO cells expressing human V2 + Gqs5; conditions: CHO; maximum response normalized to endogenous full agonist = 100%; read-out: hV2 efficacy (%)
T3 construct: expressed in transfected cells
T3 sequence (P30518 whole entry): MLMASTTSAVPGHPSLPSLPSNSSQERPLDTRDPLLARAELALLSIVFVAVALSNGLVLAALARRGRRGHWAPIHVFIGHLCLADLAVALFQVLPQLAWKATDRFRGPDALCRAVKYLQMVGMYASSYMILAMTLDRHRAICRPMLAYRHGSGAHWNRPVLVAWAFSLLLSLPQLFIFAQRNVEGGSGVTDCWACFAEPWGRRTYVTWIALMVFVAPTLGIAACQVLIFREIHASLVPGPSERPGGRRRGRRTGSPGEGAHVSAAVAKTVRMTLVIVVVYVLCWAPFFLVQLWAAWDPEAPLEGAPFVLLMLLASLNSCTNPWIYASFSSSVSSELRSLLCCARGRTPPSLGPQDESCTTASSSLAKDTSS
Text: as §1, with “activation. The stable cell lines were grown in F-12 K Nutrient Mixture (Kaighns Modification), containing 10% foetal bovine serum (FBS), 1% penicillin-streptomycin, 1% L-glutamate, 200 ug/ml Geneticin at 37° C. in a 10% CO2 incubator at 95% humidity.” for “activation.”
as §2, §3

pEC50 [1] | hOT efficacy (%) [1] | pEC50 [2] | hV1a efficacy (%) [2] | Emax [1] | Emax [3] | SMILES
7.52 | 105% | < 4.92 | – | – | – | CC[C@H](C)[C@@H]1NC(=O)[C@H](Cc2ccc(O)cc2)NC(=O)CNC(=O)CC[C@@H](C(=O)N[C@@H](C)C(=O)N[C@@H](C)C(=O)NCC(N)=O)NC(=O)[C@H](CC(N)=O)NC(=O)[C@H](CCC(N)=O)NC1=O [Example 16] (GYIQNEAAG-NH2; lactam N-6)
7.89 | 97% | < 4.57 | – | – | – | CC[C@H](C)[C@@H]1NC(=O)[C@H](Cc2ccc(O)cc2)NC(=O)CNC(=O)CC[C@@H](C(=O)N(C)CC(=O)N[C@@](C)(CC(C)C)C(=O)NCC(N)=O)NC(=O)[C@H](CC(N)=O)NC(=O)[C@H](CCC(N)=O)NC1=O [Example 51] (GYIQNE[Sar][αMeL]G-NH2; lactam N-6)
7.96 | 95% | < 4.57 | – | – | – | CC[C@H](C)[C@@H]1NC(=O)[C@H](Cc2ccc(O)cc2)NC(=O)CNC(=O)CC[C@@H](C(=O)NCC(=O)N[C@@H](CC(C)C)C(=O)NCC(N)=O)NC(=O)[C@H](CC(N)=O)NC(=O)[C@H](CCC(N)=O)NC1=O [Example 6] (GYIQNEGLG-NH2; lactam N-6)
7.92 | 105% | 7.49 | 55% | – | – | CC[C@H](C)[C@@H]1NC(=O)[C@H](Cc2ccc(O)cc2)NC(=O)CNC(=O)CC[C@@H](C(=O)N2CCC[C@H]2C(=O)N[C@@H](CCCCN)C(=O)NCC(N)=O)NC(=O)[C@H](CC(N)=O)NC(=O)[C@H](CCC(N)=O)NC1=O [Example 21] (GYIQNEPKG-NH2; lactam N-6)
– | – | – | – | 111% | 104% | CC[C@H](C)[C@@H]1NC(=O)[C@H](Cc2ccc(O)cc2)NC(=O)CNC(=O)CC[C@@H](C(=O)N(C)CC(=O)N[C@@H](CCSC)C(=O)NCC(N)=O)NC(=O)[C@H](CC(N)=O)NC(=O)[C@H](CCC(N)=O)NC1=O [Example 35] (GYIQNE[Sar]MG-NH2; lactam N-6)
8.44 | – | < 4.57 | – | 99% | – | CC[C@H](C)[C@@H]1NC(=O)[C@H](Cc2ccc(O)cc2)NC(=O)CNC(=O)CC[C@@H](C(=O)N2CC[C@H]2C(=O)N[C@@H](CC(C)C)C(=O)NCC(N)=O)NC(=O)[C@H](CC(N)=O)NC(=O)[C@H](CCC(N)=O)NC1=O [Example 50] (GYIQNE[Aze]LG-NH2; lactam N-6)
7.96 | 94% | < 4.57 | – | – | – | CC[C@H](C)[C@@H]1NC(=O)[C@H](Cc2ccc(O)cc2)NC(=O)CNC(=O)CC[C@@H](C(=O)N2CCC[C@H]2C(=O)N[C@@H](Cc2ccc(N)cc2)C(=O)NCC(N)=O)NC(=O)[C@H](CC(N)=O)NC(=O)[C@H](CCC(N)=O)NC1=O [Example 11] (GYIQNEP[Phe(4-NH2)]G-NH2; lactam N-6)
7.35 | 92% | < 4.92 | – | – | – | CC[C@H](C)[C@@H]1NC(=O)[C@H](Cc2ccc(O)cc2)NC(=O)CNC(=O)CC[C@@H](C(=O)N[C@@H](C)C(=O)N[C@@H](CC(C)C)C(=O)NCC(N)=O)NC(=O)[C@H](CC(N)=O)NC(=O)[C@H](CCC(N)=O)NC1=O [Example 17] (GYIQNEALG-NH2; lactam N-6)
7.28 | 102% | < 4.92 | – | – | – | CC[C@H](C)[C@@H]1NC(=O)[C@H](Cc2ccc(O)cc2)NC(=O)CNC(=O)CC[C@@H](C(=O)N2CCC[C@H]2C(=O)N[C@H](CC(C)C)C(=O)NCC(N)=O)NC(=O)[C@H](CC(N)=O)NC(=O)[C@H](CCC(N)=O)NC1=O [Example 15] (GYIQNEP[dL]G-NH2; lactam N-6)
8.82 | – | 6.90 | 33% | 122% | – | CC[C@H](C)[C@@H]1NC(=O)[C@H](Cc2ccc(O)cc2)NC(=O)CNC(=O)CC[C@@H](C(=O)N2CCC[C@H]2C(=O)N[C@H](C(=O)NCC(N)=O)C(C)C)NC(=O)[C@H](CC(N)=O)NC(=O)[C@H](CCC(N)=O)NC1=O [Example 19] (GYIQNEPVG-NH2; lactam N-6)
8.82 | – | – | – | 111% | – | CC[C@H](C)[C@@H]1NC(=O)[C@H](Cc2ccc(O)cc2)NC(=O)CNC(=O)CC[C@@H](C(=O)N2CCCC[C@H]2C(=O)N[C@@H](CC(C)C)C(=O)NCC(N)=O)NC(=O)[C@H](CC(N)=O)NC(=O)[C@H](CCC(N)=O)NC1=O [Example 47] (GYIQNE[Pip]LG-NH2; lactam N-6)
8.23 | – | – | – | 97% | – | CC[C@H](C)[C@@H]1NC(=O)[C@H](Cc2ccc(O)cc2)NC(=O)CNC(=O)CC[C@@H](C(=O)N(C)CC(=O)NC(C)(C)C(=O)NCC(N)=O)NC(=O)[C@H](CC(N)=O)NC(=O)[C@H](CCC(N)=O)NC1=O [Example 49] (GYIQNE[Sar][Aib]G-NH2; lactam N-6)
7.51 | 102% | – | – | – | – | CC[C@H](C)[C@@H]1NC(=O)[C@H](Cc2ccc(O)cc2)NC(=O)CNC(=O)CC[C@@H](C(=O)N2CCC[C@H]2CC(=O)N[C@@H](CC(C)C)C(=O)NCC(N)=O)NC(=O)[C@H](CC(N)=O)NC(=O)[C@H](CCC(N)=O)NC1=O [Example 4] (GYIQNE[β3hP]LG-NH2; lactam N-6)
6.74 | 108% | – | – | – | – | CC[C@H](C)[C@@H]1NC(=O)[C@H](Cc2ccc(O)cc2)NC(=O)CNC(=O)CC[C@@H](C(=O)N2CCC[C@H]2C(=O)N[C@@H](CC(C)C)C(=O)N(C)CC(N)=O)NC(=O)[C@H](CC(N)=O)NC(=O)[C@H](CCC(N)=O)NC1=O [Example 5] (GYIQNEPL[Sar]-NH2; lactam N-6)
9.00 | – | – | – | 126% | – | CC[C@H](C)[C@@H]1NC(=O)[C@H](Cc2ccc(O)cc2)NC(=O)CNC(=O)CC[C@@H](C(=O)N(C)CC(=O)N[C@@H](Cc2c[nH]c3ccccc23)C(=O)NCC(N)=O)NC(=O)[C@H](CC(N)=O)NC(=O)[C@H](CCC(N)=O)NC1=O [Example 38] (GYIQNE[Sar]WG-NH2; lactam N-6)
